The test system of experiment [1] is lysophosphatidic acid acyl transferase (LPAAT). The experiment can be described thus: in vitro inhibition of LPAAT in 3T3 Ras-transformed fibroblasts stimulated with IL-1β. Format: cell-based. Here is the method: FIG. 17 illustrates a comparison of CT1501R, its S isomer CT1501S, and PTX on in vitro inhibition of lysophosphatidic acid acyl transferase (LPAAT), an enzyme involved in second messenger signaling. […] LPAAT activity was determined in 3T3 Ras-transformed fibroblasts stimulated with IL-1β.
A method described here permits differentiation of the various subspecies of PA and DAG based upon acyl chain composition. This can differentiate those compounds that activate (and inhibit activation of) the present second messenger pathway from other pathways, such as the classical PI pathway. The present second messenger pathway involves substrates with unsaturated fatty acids in the sn-2 position other than arachidonate and those sub species of PAPH and LPAAT that are not involved in normal cellular housekeeping functions that are part of the classical PI pathway. […]
One in vitro assay measures inhibition of the relevant enzymes lysophosphatidic acid acyltransferase (LPAAT) and phosphatidic acid phosphoryl hydrolase (PAPH). […] It is important to note that the assay method permits discrimination between various forms of PA and DAG so that those relevant to the pathway affected by the (R) or (S) compounds of the invention can be measured directly. […] Thus, the relevant unsaturated (non-arachidonic) PA and DAG subspecies may be detected. […]

Experiment [2] has as its system TNF-α release from LPS-activated mouse peritoneal macrophages. The experiment can be described thus: TNF-α release from LPS stimulated PEC, ELISA. Format: cell-based. To be noted: Peritoneal macrophage. Here is the method:
R. Cells were isolated and treated with or without various concentrations of CT1501R one hour prior to LPS activation ([…]). Twenty four hours later the supernalants were collected assayed for TNF-α by ELISA (+/-SD).
Murine peritoneal exudate cell macrophages (PEC) were isolated by perfusion of mouse peritoneum and plated into 96-well trays at 5×10^5 cells per well. […] At various times thereafter, supernatants were removed and levels of either TNF-α or IL-1α were assayed using commercial 96-well microtiter immunoassay kits (Genzyme; TNF; Endogen, Boston, Mass.; IL-1α) according to manufacturer's specifications. […] 4000 cells were plated into each well of a 96-well microtiter plate and allowed to incubate for 72 hrs at 37° C. […] Either the HUVEC or U937 cells were stimulated with either LPS, IL-1α or TNF-α for 12 hrs. For the adhesion assay, U937 cells were labeled with the fluorescent viability stain, 2',7'-bis-(2-carboxyethyl)-5-(and-6)-carboxyfluorescein acetoxymethyl ester (BCECF). […] The cells were washed once with full media and 50,000 cells/well added to the HUVEC cultures. The samples were incubated at 37° C. for 30 min, inverted and centrifuged for 10 min at 400×g. After addition of […] Hanks Balanced Salt Solution (HBSS), the microtiter plate was then analyzed on a Millipore Cytofiuor fluorescent plate reader (excitation 488 nm; emission 525 nm). […]
For orientation: An ELISA detects its analyte on a solid surface through an enzyme-linked reagent.

Molecules are shown by their SMILES.

On to `C[C@@H](O)CCCCn1c(=O)c2c(ncn2C)n(C)c1=O` [CT1501R, (R)-1-(5-hydroxyhexyl)-3,7-dimethylxanthine], for which the “potency relative to racemic mixture (M1)” value in experiment [1] is reported as “two to three time more potent than the racemic mixture”. Further, in experiment [1] (3T3 Ras-transformed fibroblasts stimulated with IL-1β, at IC50 concentrations achievable in a clinical setting), the “inhibition of LPAAT enzyme activity” value was “significantly inhibited enzyme activity”. For the same compound, the inhibition at 500 µM in experiment [2] (500 μM, read-out: inhibitory effects, % of the maximal LPS stimulation (1428 pg/ml)) is ~40%. Also, the IC50 in experiment [2] (drug 1 hour before LPS (10 μg/ml LPS), read-out: IC50 for TNF-α inhibition (concentration for 50% inhibition)) is ~30 µM.

The record behind these values is patent publication US5621102A, “Process for preparing enantiomerically pure xanthine derivatives” (Cell Therapeutics, Inc., priority 1995, dated 1997).
